Assay results: ChEMBL document CHEMBL3763039, “Development and Characterization of Potent Cyclic Acyldepsipeptide Analogues with Increased Antimicrobial Activity” (2016)
In brackets after ≈: the same amount, converted by molar mass. Where a SMILES comes first, the peptide text is derived from it. Bridges are numbered along the chain shown (N, C = ends). [ ]: non-standard residue; d: D form. The star is where a group is joined. Phe(F5) = N[C@@H](Cc1c(F)c(F)c(F)c(F)c1F)C(=O)O; Phe(3,5-F2) = N[C@@H](Cc1cc(F)cc(F)c1)C(=O)O; Pip(4S-Me) = C[C@H]1CCN[C@H](C(=O)O)C1; 2Nal = N[C@@H](Cc1ccc2ccccc2c1)C(=O)O; Pro(4R-Me) = C[C@H]1CN[C@H](C(=O)O)C1; Tiq1c(1S) = O=C(O)[C@H]1NCCc2ccccc21; Bta = N[C@@H](Cc1csc2ccccc12)C(=O)O; Heptenoyl(2E) = CCCC/C=C/C(=O)*; Cha = N[C@@H](CC1CCCCC1)C(=O)O; aThr = C[C@H](O)[C@H](N)C(=O)O; Pip = O=C(O)[C@@H]1CCCCN1; Abu = CC[C@H](N)C(=O)O; Dap = NC[C@H](N)C(=O)O

Experiments:
Type in all cases: functional
Listeria innocua = experiment: Antibacterial activity against Listeria innocua incubated for 16 to 18 hrs by broth microdilution method
Streptococcus pneumoniae = experiment: Antibacterial activity against Streptococcus pneumoniae D39 incubated for 16 to 18 hrs by broth microdilution method
Bacillus subtilis = experiment: Antibacterial activity against Bacillus subtilis PY79 incubated for 16 to 18 hrs by broth microdilution method
Staphylococcus aureus [1] = experiment: Antibacterial activity against methicillin-resistant Staphylococcus aureus 1784A incubated for 16 to 18 hrs by broth microdilution method
Escherichia coli [2] = experiment: Antibacterial activity against Escherichia coli MC4100 expressing lptD-4213 incubated for 16 to 18 hrs by broth microdilution method
Neisseria meningitidis = experiment: Antibacterial activity against Neisseria meningitidis H44/76 incubated for 16 to 18 hrs by broth microdilution method
Staphylococcus aureus [3] = experiment: Antibacterial activity against Staphylococcus aureus ATCC 29213 incubated for 16 to 18 hrs by broth microdilution method
Staphylococcus aureus [4] = experiment: Antibacterial activity against Staphylococcus aureus subsp. aureus Newman clinical isolate incubated for 16 to 18 hrs by broth microdilution method
Pseudomonas aeruginosa = experiment: Antibacterial activity against Pseudomonas aeruginosa PAO1 incubated for 16 to 18 hrs by broth microdilution method
Escherichia coli [5] = experiment: Antibacterial activity against Escherichia coli MC4100 incubated for 16 to 18 hrs by broth microdilution method
Neisseria gonorrhoeae = experiment: Antibacterial activity against chloramphenicol-resistant Neisseria gonorrhoeae N.279 incubated for 16 to 18 hrs by broth microdilution method
Enterococcus faecalis = experiment: Antibacterial activity against vancomycin-resistant Enterococcus faecalis V583 incubated for 16 to 18 hrs by broth microdilution method

Structure (SMILES)	MIC (Listeria innocua) [µg/mL]	MIC (Streptococcus pneumoniae) [µg/mL]	MIC (Bacillus subtilis) [µg/mL]	MIC (Staphylococcus aureus [1]) [µg/mL]	MIC (Escherichia coli [2]) [µg/mL]	MIC (Neisseria meningitidis) [µg/mL]	MIC (Staphylococcus aureus [3]) [µg/mL]	MIC (Staphylococcus aureus [4]) [µg/mL]	MIC (Pseudomonas aeruginosa) [µg/mL]	MIC (Escherichia coli [5]) [µg/mL]	MIC (Neisseria gonorrhoeae) [µg/mL]	MIC (Enterococcus faecalis) [µg/mL]
CN[C@@H](CC(C)C)C(=O)N[C@H]1C(=O)N[C@@H](CC(N)=O)C(=O)N[C@H]2C(=O)N[C@H]3C(=O)N[C@H](C(=O)N[C@@H](C(=O)O)c4cc(O)cc(O)c4-c4cc3ccc4O)[C@H](O)c3ccc(c(Cl)c3)Oc3cc2cc(c3O[C@H]2O[C@@H](CO)[C@H](O)[C@@H](O)[C@@H]2O[C@@H]2C[C@@](C)(N)[C@@H](O)[C@@H](C)O2)Oc2ccc(cc2Cl)[C@H]1O	1 (≈ 0.69 µM)	0.25 (≈ 0.173 µM)	0.16 (≈ 0.11 µM)	1.3 (≈ 0.897 µM)								
C[C@@H]1C[C@H]2C(=O)O[C@@H](C)[C@H](NC(=O)[C@H](Cc3cc(F)cc(F)c3)NC(=O)/C=C/CCCCC(=O)O)C(=O)N3CCC[C@H]3C(=O)N3CCCC[C@H]3C(=O)N[C@@H](C)C(=O)N2C1	0.5 (≈ 0.603 µM)	0.125 (≈ 0.151 µM)	16 (≈ 19.3 µM)	64 (≈ 77.2 µM)	> 128	4 (≈ 4.83 µM)	32 (≈ 38.6 µM)	64 (≈ 77.2 µM)	> 128	> 128	1 (≈ 1.21 µM)	8 (≈ 9.65 µM)
CCCC/C=C/C(=O)N[C@@H](Cc1ccc2ccccc2c1)C(=O)N[C@H]1COC(=O)[C@@H]2C[C@@H](C)CN2C(=O)[C@H](CC)NC(=O)[C@@H]2CCCCN2C(=O)[C@@H]2CCCN2C1=O ({Heptenoyl(2E)}-[2Nal]SP[Pip][Abu][Pro(4R-Me)]; ester 2-C)	0.5 (≈ 0.626 µM)	2 (≈ 2.5 µM)	128 (≈ 160 µM)	> 128	> 128	32 (≈ 40.1 µM)	> 128	> 128	> 128	> 128	> 128	32 (≈ 40.1 µM)
CCCC/C=C/C(=O)N[C@@H](Cc1cc(F)cc(F)c1)C(=O)N[C@H]1COC(=O)[C@@H]2C[C@@H](C)CN2C(=O)[C@H](CC)NC(=O)[C@@H]2c3ccccc3CCN2C(=O)[C@@H]2CCCN2C1=O ({Heptenoyl(2E)}-[Phe(3,5-F2)]SP[Tiq1c(1S)][Abu][Pro(4R-Me)]; ester 2-C)	0.125 (≈ 0.15 µM)	0.5 (≈ 0.6 µM)	2 (≈ 2.4 µM)	4 (≈ 4.8 µM)	> 128	8 (≈ 9.6 µM)	4 (≈ 4.8 µM)	8 (≈ 9.6 µM)	> 128	> 128	8 (≈ 9.6 µM)	0.25 (≈ 0.3 µM)
CCCC/C=C/C(=O)N[C@@H](Cc1csc2ccccc12)C(=O)N[C@H]1COC(=O)[C@@H]2C[C@@H](C)CN2C(=O)[C@H](CC)NC(=O)[C@@H]2CCCCN2C(=O)[C@@H]2CCCN2C1=O ({Heptenoyl(2E)}-[Bta]SP[Pip][Abu][Pro(4R-Me)]; ester 2-C)	0.125 (≈ 0.155 µM)	8 (≈ 9.94 µM)	8 (≈ 9.94 µM)	> 128	> 128	32 (≈ 39.8 µM)	8 (≈ 9.94 µM)	8 (≈ 9.94 µM)	> 128	> 128	> 128	8 (≈ 9.94 µM)
CCCC/C=C/C(=O)N[C@@H](CC1CCCCC1)C(=O)N[C@H]1COC(=O)[C@@H]2C[C@@H](C)CN2C(=O)[C@H](CC)NC(=O)[C@@H]2CCCCN2C(=O)[C@@H]2CCCN2C1=O ({Heptenoyl(2E)}-[Cha]SP[Pip][Abu][Pro(4R-Me)]; ester 2-C)	≤ 0.0625	0.5 (≈ 0.662 µM)	2 (≈ 2.65 µM)	4 (≈ 5.3 µM)	> 128	32 (≈ 42.4 µM)	1 (≈ 1.32 µM)	1 (≈ 1.32 µM)	> 128	> 128	32 (≈ 42.4 µM)	1 (≈ 1.32 µM)
CCCC/C=C/C(=O)N[C@@H](Cc1c(F)c(F)c(F)c(F)c1F)C(=O)N[C@H]1COC(=O)[C@@H]2C[C@@H](C)CN2C(=O)[C@H](CC)NC(=O)[C@@H]2CCCCN2C(=O)[C@@H]2CCCN2C1=O ({Heptenoyl(2E)}-[Phe(F5)]SP[Pip][Abu][Pro(4R-Me)]; ester 2-C)	4 (≈ 4.77 µM)	> 128	128 (≈ 153 µM)	> 128	> 128	32 (≈ 38.1 µM)	> 128	> 128	> 128	> 128	32 (≈ 38.1 µM)	16 (≈ 19.1 µM)
CCCC/C=C/C(=O)N[C@@H](Cc1cc(F)cc(F)c1)C(=O)N[C@@H]1C(=O)N2CCC[C@H]2C(=O)N2CC[C@H](C)C[C@H]2C(=O)N[C@@H](C)C(=O)N2CCC[C@H]2C(=O)O[C@H]1C ({Heptenoyl(2E)}-[Phe(3,5-F2)][aThr]P[Pip(4S-Me)]AP; ester 2-C)	≤ 0.0625	≤ 0.0625	≤ 0.0625	1 (≈ 1.27 µM)	> 128	0.125 (≈ 0.159 µM)	0.0078 (≈ 0.00994 µM)	0.5 (≈ 0.637 µM)	> 128	> 128	0.125 (≈ 0.159 µM)	0.0156 (≈ 0.0199 µM)
CCCC/C=C/C(=O)N[C@@H](Cc1cc(F)cc(F)c1)C(=O)N[C@@H]1C(=O)N2CCC[C@H]2C(=O)N2CCCC[C@H]2C(=O)N[C@@H](C)C(=O)N2CCC[C@H]2C(=O)O[C@H]1C	≤ 0.0625	≤ 0.0625	≤ 0.0625	0.125 (≈ 0.162 µM)	> 128	0.25 (≈ 0.324 µM)	0.0078 (≈ 0.0101 µM)	0.0625 (≈ 0.0811 µM)	> 128	> 128	0.125 (≈ 0.162 µM)	0.0078 (≈ 0.0101 µM)
CCCC/C=C/C(=O)N[C@@H](Cc1cc(F)cc(F)c1)C(=O)N[C@H]1CNC(=O)[C@@H]2C[C@@H](C)CN2C(=O)[C@H](C)NC(=O)[C@@H]2CCCCN2C(=O)[C@@H]2CCCN2C1=O ({Heptenoyl(2E)}-[Phe(3,5-F2)][Dap]P[Pip]A[Pro(4R-Me)]; lactam 2-C)	≤ 0.0625	2 (≈ 2.6 µM)	4 (≈ 5.2 µM)	16 (≈ 20.8 µM)	> 128	1 (≈ 1.3 µM)	4 (≈ 5.2 µM)	16 (≈ 20.8 µM)	> 128	> 128	1 (≈ 1.3 µM)	0.5 (≈ 0.649 µM)
CCCC/C=C/C(=O)N[C@@H](Cc1cc(F)cc(F)c1)C(=O)N[C@H]1COC(=O)[C@@H]2C[C@@H](C)CN2C(=O)[C@H](CC)NC(=O)[C@@H]2CCCN2C(=O)[C@@H]2CCCN2C1=O ({Heptenoyl(2E)}-[Phe(3,5-F2)]SPP[Abu][Pro(4R-Me)]; ester 2-C)	≤ 0.0625	0.5 (≈ 0.649 µM)	0.125 (≈ 0.162 µM)	2 (≈ 2.59 µM)	> 128	4 (≈ 5.19 µM)	2 (≈ 2.59 µM)	2 (≈ 2.59 µM)	> 128	> 128	4 (≈ 5.19 µM)	0.25 (≈ 0.324 µM)
C[C@@H]1C[C@H]2C(=O)O[C@@H](C)[C@H](NC(=O)[C@H](Cc3cc(F)cc(F)c3)NC(=O)/C=C/CC3CC3)C(=O)N3CCC[C@H]3C(=O)N3CCCC[C@H]3C(=O)N[C@@H](C)C(=O)N2C1	≤ 0.0625	≤ 0.0625	≤ 0.0625	0.125 (≈ 0.16 µM)	> 128	0.25 (≈ 0.319 µM)	0.0078 (≈ 0.00996 µM)	0.0625 (≈ 0.0798 µM)	> 128	> 128	0.125 (≈ 0.16 µM)	0.0078 (≈ 0.00996 µM)
CCCC/C=C/C(=O)N[C@@H](Cc1cc(F)cc(F)c1)C(=O)N[C@H]1COC(=O)[C@@H]2C[C@@H](C)CN2C(=O)[C@H](C)NC(=O)[C@@H]2C[C@@H](C)CCN2C(=O)[C@@H]2CCCN2C1=O ({Heptenoyl(2E)}-[Phe(3,5-F2)]SP[Pip(4S-Me)]A[Pro(4R-Me)]; ester 2-C)	≤ 0.0625	≤ 0.0625	≤ 0.0625	4 (≈ 5.1 µM)	> 128	0.125 (≈ 0.159 µM)	0.0156 (≈ 0.0199 µM)	0.5 (≈ 0.637 µM)	> 128	> 128	0.0625 (≈ 0.0796 µM)	0.0156 (≈ 0.0199 µM)
